Values quoted from earlier work in patent US20230380414A1, “SYSTEMS, DEVICES AND METHODS FOR DELIVERING AEROSOLIZED FLUOROCARBONS” (BOUNDLESS SCIENCE, LLC, priority 2020, published 2023).
Like-named read-outs stand apart in the source and are kept apart here.

Legend:
[1] = cited from earlier work
[2] = cited from earlier work; for Den: Table 1; for Specific Gravity: partial list of fluorinated and perfluorinated liquids
[3] = cited from earlier work; for Enthalpy of Vap. H: Table 1; for enthalpies of vaporization: running text
[4] = Table 1; cited from earlier work
[5] = cited from earlier work; for Spec. Ht Liq C: liquid
[6] = @ 20° C.; cited from earlier work
[7] = Table 1; cited from earlier work; remark: listed apart in the source
[8] = in water; cited from earlier work
[9] = partial list of fluorinated and perfluorinated liquids
[10] = Other perfluorinated liquids and their boiling points
[11] = commercial hydrofluoroalkanes, unit not given

Compound: OCC(F)(F)OC(F)(F)C(F)(F)OC(F)(F)C(F)(F)OC(F)(F)C(F)(F)C(F)(F)C(F)(F)F [1H,1H-Perfluoro-3,6,9-trioxatridecan-1-ol]
- Boiling point [1, 9]: 175-176 °C

Compound: FC(F)(F)C(F)(F)C(F)(F)C(F)(F)C(F)(F)C(F)(F)F [Perfluorohexane]
- Boiling point [1, 10]: 56.0 °C
- Boiling point ([1]; Table 2): 56.0 °C
- Boiling point ([1]; Table 4): 56.0 °C

Compound: OCC(F)(F)F [2,2,2-trifluoroethanol]
- Boiling point [1, 10]: 78 °C

Compound: FC(F)(F)C(F)(F)C(F)(F)C(F)(F)F [Perfluorobutane]
- Den [2]: 1.63 g/mL
- Enthalpy of Vap. H [3]: 88 kJ/kg
- enthalpies of vaporization [3]: 88 kJ/kg
- Boiling point [1, 10]: −1.7 °C
- Boiling point ([1]; Table 1): −1.8 °C
- Boiling point ([1]; Table 2): −1.7 °C
- Boiling point ([1]; Table 4): −1.7 °C
- Boiling point [1]: −1.7 C
- Boiling point ([1]; listed as perfiiuorobutane): −1.7 °C
- Viscosity [4]: 0.012 cPs
- Spec Ht gas C [5]: 0.69 KJ/Kg/C
- Spec. Ht Liq C [5]: 0.53 KJ/Kg/C

Compound: FC(F)C(F)(F)C(F)(F)C(F)(F)C(F)(F)C(F)(F)C(F)(F)C(F)(F)C(F)(F)F [1H-Perfluorononane, Nonadecafluorononane]
- Boiling point [1, 9]: 138 °C

Compound: FC(F)C(F)(F)C(F)(F)C(F)(F)C(F)(F)C(F)(F)C(F)(F)C(F)(F)F [1H-Perfluorooctane, Heptadecafluorooctane]
- Boiling point [1, 9]: 117 °C

Compound: FC(F)(F)C(F)(F)C(F)(F)C(F)(F)C(F)(F)C(F)(F)C(F)(F)C(F)(F)C(F)(F)F [Perfluorononane, Eicosafluorononane]
- Specific Gravity [2]: 1.799

Compound: FC(F)C(F)(F)C(F)(F)C(F)(F)C(F)(F)C(F)F [1H,6H-Perfluorohexane, Dodecafluorohexane]
- Boiling point [1, 9]: 93 °C

Compound: FC(F)(F)C(F)(C(F)(F)F)C(F)(C(F)(F)F)C(F)(F)F [Perfluoro-(2,3-Dimethylbutane), 1,1,1,2,3,4,4,4-Octafluoro-2,3-bis(trifluoromethyl)butane]
- Specific Gravity [2]: 1.7729

Compound: Perfluoro(triethylene glycol dimethyl ether) [Perfluorotetraglyme]
- Boiling point [1, 9]: 138 °C

Compound: FC(C(F)(F)F)C(F)(F)F [HFA227ea ™]
- Boiling point [1, 11]: −17

Compound: FC1(F)C(F)(F)C(F)(F)C2(F)C(F)(F)C(F)(F)C(F)(F)C(F)(F)C2(F)C1(F)F (stereo not drawn) [Perfluorodecalin, Octadecafluorodecalin]
- Den [2]: 1.92 g/mL
- Enthalpy of Vap. H [3]: 85 kJ/kg
- Vapor Pressure [6]: 6 torr @ 20 °C
- Viscosity [4]: 5.100 cPs
- O2 Solubility [7]: 49 ml/100 ml
- Spec. Ht Liq C [5]: 1.05 KJ/Kg/C

Compound: OCC(F)(F)OC(F)(F)C(F)(F)OC(F)(F)C(F)(F)C(F)(F)C(F)(F)F [1H,1H-Perfluoro-3,6-dioxadecan-1-ol]
- Boiling point [1, 9]: 150 °C

Compound: COC(F)(F)C(F)(F)C(F)(F)F [methyl perfluoropropyl ether]
- Boiling point [1, 10]: 34 °C

Compound: FC1(F)C(F)(F)C(F)(F)C2(F)C(F)(C1(F)F)C(F)(F)C(F)(F)C1(F)C(F)(F)C(F)(F)C(F)(F)C(F)(F)C12F (stereo not drawn) [Perfluoroperhydrophenanthrene]
- Boiling point [1, 10]: 215 °C
- Boiling point ([1]; Table 2): 215 °C
- Boiling point ([1]; Table 4): 215 °C

Compound: FC(F)C(F)(F)C(F)(F)C(F)(F)C(F)(F)C(F)(F)C(F)(F)C(F)F [1H,8H-Perfluorooctane, Hexadecafluorooctane]
- Boiling point [1, 9]: 134 °C

Compound: FC(F)(F)C(F)(F)C(F)(F)C(F)(F)C(F)(F)C(F)(F)C(F)(F)F [perfluoroheptane, Hexadecafluoroheptane]
- Den [2]: 1.75 g/mL
- Specific Gravity [2]: 1.72
- Enthalpy of Vap. H [3]: 90 kJ/kg
- Boiling point [1, 10]: 56.0 °C
- Boiling point ([1]; Table 1): 82 °C
- Boiling point ([1]; Table 2): 56.0 °C
- Boiling point ([1]; Table 4): 56.0 °C
- Boiling point [1, 9]: 80-82 °C
- Viscosity [4]: 0.900 cPs
- Spec Ht gas C [5]: 0.82 KJ/Kg/C
- Spec. Ht Liq C [5]: 0.64 KJ/Kg/C

Compound: FC(F)C(F)(F)C(F)(F)C(F)(F)C(F)(F)C(F)(F)C(F)(F)F [1H-Perfluoroheptane, Pentadecafluoroheptane]
- Boiling point [1, 9]: 97 °C

Compound: FC(F)C(F)(F)C(F)(F)C(F)F [1H.4H-Perfluorobutane, Octafluorobutane]
- Boiling point [1, 9]: 45 °C

Compound: OCC(F)(F)C(F)(C(F)(F)F)C(F)(F)C(F)(F)C(F)(F)C(F)(C(F)(F)F)C(F)(F)F (stereo not drawn) [Perfluoro-3,7-dimethyloctan-1-ol, 3,7-Bis(trifluoromethyl)tridecafluorooctanol]
- Solubility [8]: Insoluble in
- Boiling point ([1]; 20 mmHg): 95° C./20

Compound: FC(F)(F)C(F)(F)C(F)(F)F [perfluoropropane]
- Boiling point [1, 10]: −36.7 °C
- Boiling point ([1]; Table 2): −36.7 °C
- Boiling point ([1]; Table 4): −36.7 °C

Compound: FC(F)C(F)(F)C(F)(F)C(F)(F)C(F)(F)F [1H-Perfluoropentane, Undecafluoropentane]
- Boiling point [1, 9]: 42 °C

Compound: FCC(F)(F)F [HFA 134a ™]
- Boiling point [1, 11]: −26

Compound: FC(F)(F)C(F)(F)C(F)(F)C(F)(F)C(F)(F)N(C(F)(F)C(F)(F)C(F)(F)C(F)(F)C(F)(F)F)C(F)(F)C(F)(F)C(F)(F)C(F)(F)C(F)(F)F [perfluorotripentyl amine]
- Boiling point [1, 10]: 215 °C
- Boiling point ([1]; Table 2): 215 °C
- Boiling point ([1]; Table 4): 215 °C

Compound: FC(F)C(F)(F)C(F)(F)C(F)(F)C(F)(F)C(F)(F)F [1H-Perfluorohexane, Tridecafluorohexane]
- Boiling point [1, 9]: 70 °C

Compound: FC(F)(F)C(F)(F)C(F)(F)C(F)(F)C(F)(F)F [perfluoropentane]
- Den [2]: 1.59 g/mL
- Enthalpy of Vap. H [3]: 94 kJ/kg
- enthalpies of vaporization [3]: 94 kJ/kg
- Boiling point [1, 10]: 28.0 °C
- Boiling point ([1]; Table 1): 30 °C
- Boiling point ([1]; Table 2): 28.0 °C
- Boiling point ([1]; Table 4): 28.0 °C
- Boiling point ([1]; running text): 30 C
- Viscosity [4]: 0.460 cPs
- O2 Solubility [7]: 54 ml/100 ml
- Specific Heat ([5]; chilled aerosolized liquid): 1.05 KJ/Kg*C
- Spec Ht gas C [5]: 1.02 KJ/Kg/C
- Spec. Ht Liq C [5]: 1.05 KJ/Kg/C

Compound: OCC(F)(F)C(F)(F)C(F)(F)C(F)(F)F [1H, 1H-Perfluoro-1-pentanol, 1H, 1H-Nonafluoro-1-pentanol]
- Boiling point [1, 9]: 110-111 °C

Compound: FC(F)(F)C(F)(F)C(F)(F)C(F)(F)C(F)(F)C(F)(F)C(F)(F)C(F)(F)F [Perfluorooctane, Octadecafluorooctane]
- Den [2]: 1.77 g/mL
- Specific Gravity [2]: 1.73
- Enthalpy of Vap. H [3]: 76 kJ/kg
- Boiling point ([1]; Table 1): 377 °C
- Boiling point ([1]; Table 2): 103.0 °C
- Boiling point ([1]; Table 4): 103.0 °C
- Boiling point [1, 9]: 103-104 °C
- Viscosity [4]: 1.800 cPs

Compound: Perfluoro(triethylene glycol dimethyl ether) [Perfluorotriglyme]
- Boiling point [1, 9]: 106 °C

Compound: FC(F)(F)C(F)(F)C(F)(F)C(F)(F)N(C(F)(F)C(F)(F)C(F)(F)C(F)(F)F)C(F)(F)C(F)(F)C(F)(F)C(F)(F)F [perfluoro tributyl amine]
- Boiling point [1, 10]: 178 °C
- Boiling point ([1]; Table 2): 178 °C
- Boiling point ([1]; Table 4): 178 °C

Compound: FC(F)(F)C(F)(F)C(F)(F)C(F)(F)C(F)(F)C(F)(F)C(F)(F)C(F)(F)Br [Perfluorooctylbromide]
- Boiling point [1, 10]: 142 °C
- Boiling point ([1]; Table 2): 142 °C
- Boiling point ([1]; Table 4): 142 °C

Compound: COC(F)(F)C(F)(F)C(F)(F)C(F)(F)F [methyl perfluorobutylether]
- Boiling point [1, 10]: 60 °C

Compound: FC(F)(F)C(F)(F)C(F)(F)C(F)(F)C(F)(F)C(F)(F)F [C6F14]
- Den [2]: 1.69 g/mL
- Enthalpy of Vap. H [3]: 93 kJ/kg
- Boiling point ([1]; Table 1): 69 °C
- Viscosity [4]: 0.979 cPs
- Spec Ht gas C [5]: 0.78 KJ/Kg/C
- Spec. Ht Liq C [5]: 0.71 KJ/Kg/C
